Assay results reported in patent US9834542B2, “LXR modulators” (BRISTOL-MYERS SQUIBB COMPANY, priority 2013, dated 2017).

Target: T1, LXRβ (Homo sapiens, UniProt P55055)
T1 construct: Co-transfection expression plasmids, comprising full-length LXRα (pCMX-h LXRα[…] or LXRβ (pCMX-hLXRβ)); expressed in transfected cells; host or cells: CV-1 African Green Monkey Kidney Cells
T1 sequence (P55055 1-460): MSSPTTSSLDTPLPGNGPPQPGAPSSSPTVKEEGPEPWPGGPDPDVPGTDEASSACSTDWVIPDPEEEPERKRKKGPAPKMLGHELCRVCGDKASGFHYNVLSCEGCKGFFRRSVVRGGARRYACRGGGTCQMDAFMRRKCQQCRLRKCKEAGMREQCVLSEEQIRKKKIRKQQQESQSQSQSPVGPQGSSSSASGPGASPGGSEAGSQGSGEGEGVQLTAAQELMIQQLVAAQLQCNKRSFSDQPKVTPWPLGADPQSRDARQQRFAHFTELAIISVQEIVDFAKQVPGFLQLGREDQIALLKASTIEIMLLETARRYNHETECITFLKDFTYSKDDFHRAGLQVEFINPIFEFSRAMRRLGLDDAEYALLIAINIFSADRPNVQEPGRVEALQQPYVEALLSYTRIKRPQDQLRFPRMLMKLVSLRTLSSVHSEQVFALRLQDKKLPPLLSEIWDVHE
T1 sequence (P19793 1-462 partner): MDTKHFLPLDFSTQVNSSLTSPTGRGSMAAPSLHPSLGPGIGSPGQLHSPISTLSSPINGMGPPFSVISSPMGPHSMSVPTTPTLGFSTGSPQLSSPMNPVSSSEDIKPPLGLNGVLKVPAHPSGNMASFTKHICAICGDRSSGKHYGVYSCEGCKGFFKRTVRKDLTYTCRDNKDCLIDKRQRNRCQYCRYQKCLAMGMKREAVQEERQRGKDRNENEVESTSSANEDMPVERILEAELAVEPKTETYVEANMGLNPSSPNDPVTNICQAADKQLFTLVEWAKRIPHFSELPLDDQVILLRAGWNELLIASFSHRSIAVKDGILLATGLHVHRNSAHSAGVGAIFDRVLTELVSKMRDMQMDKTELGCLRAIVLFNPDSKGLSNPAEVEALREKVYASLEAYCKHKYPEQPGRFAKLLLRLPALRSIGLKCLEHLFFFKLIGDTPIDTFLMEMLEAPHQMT
Experiment: Co-transfection assay (LXRE luciferase reporter), LXRβ
Type: cell-based
Settings: for EC50: CV-1 cells transfected with pCMX-hLXRβ and LXREx1-Tk-Luciferase, 20 hours incubation; for Emax: LXRβ co-transfection, relative to high control 1-(2,4-difluorobenzyl)-2-oxo-6-(4-phenoxyphenyl)-4-(trifluoromethyl)-1,2-dihydropyridine-3-carbonitrile, read-out: % Efficacy
Summary of the method: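 CV-1 / pCMX-hLXRβ + LXREx1-Tk-Luc + β-gal; cpd 20 h, 37 °C, ≤0.5% DMSO; Steady-Glo luminescence. 11-pt ½-log curves, duplicate wells, sigmoidal fit → EC50; % efficacy vs high-control agonist, DMSO low control; mean of ≥2 expts.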

Row | EC50 | Emax | SMILES
1 | 306 nM | 111% | COCc1c(F)cc(-c2ccc(-n3cc(C(F)(F)F)nc3C)c(-n3nncc3-c3ccc(OC(F)(F)F)cc3)c2)cc1S(C)(=O)=O [Example 88, 1-{3′-fluoro-4′-[(methyloxy)methyl]-5′-(methylsulfonyl)-4-[2-methyl-4-(trifluoromethyl)-1H-imidazol-1-yl]biphenyl-3-yl}-5-{4-[(trifluoromethyl)oxy]phenyl}-1H-1,2,3-triazole]
2 | 475 nM | 91% | CNS(=O)(=O)c1cccc(-c2ccc(-n3cc(C(F)F)nc3C)c(-c3cnnn3Cc3ccc(Cl)cc3)c2)c1 [Example 246, 3′-(1-(4-chlorobenzyl)-1H-1,2,3-triazol-5-yl)-4′-(4-(difluoromethyl)-2-methyl-1H-imidazol-1-yl)-N-methyl-[1,1′-biphenyl]-3-sulfonamide]
3 | 40 nM | 95% | Cc1nc(-c2cc(-c3cccc(S(C)(=O)=O)c3)ccc2-n2cc(C(F)(F)F)nc2C)c(-c2ccc3c(c2)OC(F)(F)O3)o1 [Example 493, 5-(2,2-difluorobenzo[d][1,3]dioxol-5-yl)-2-methyl-4-(4-(2-methyl-4-(trifluoromethyl)-1H-imidazol-1-yl)-3′-(methylsulfonyl)biphenyl-3-yl)oxazole]
4 | 776 nM | 55% | Cc1nc(C(F)(F)F)cn1-c1ccc(-c2cccc(S(C)(=O)=O)c2)cc1-n1nncc1CC1CCC(C)CC1 (stereo not shown) [Example 127, 5-[(4-methylcyclohexyl)methyl]-1-{3′-(methylsulfonyl)-4-[2-methyl-4-(trifluoromethyl)-1H-imidazol-1-yl]biphenyl-3-yl}-1H-1,2,3-triazole]
5 | 2340 nM | 71% | COc1ccc(-c2ccc(-n3cc(C(F)(F)F)nc3C)c(-n3nncc3-c3ccc(OC(F)(F)F)cc3)c2)cc1S(C)(=O)=O [Example 94, 1-{4′-(methyloxy)-3′-(methylsulfonyl)-4-[2-methyl-4-(trifluoromethyl)-1H-imidazol-1-yl]biphenyl-3-yl}-5-{4-[(trifluoromethyl)oxy]phenyl}-1H-1,2,3-triazole]
6 | 174 nM | 77% | Cc1nc(-c2cc(-c3cc(F)c(CO)c(S(C)(=O)=O)c3)ccc2-n2cc(C(F)(F)F)nc2C)c(-c2ccc(Cl)c(OC(F)F)c2)o1 [Example 459, (3′-(5-(4-chloro-3-(difluoromethoxy)phenyl)-2-methyloxazol-4-yl)-3-fluoro-4′-(2-methyl-4-(trifluoromethyl)-1H-imidazol-1-yl)-5-(methylsulfonyl)biphenyl-4-yl)methanol]
7 | 13 nM | 71% | Cc1nc(C(F)(F)F)cn1-c1ccc(-c2cc(F)c(CO)c(S(C)(=O)=O)c2)cc1-c1nc(CC(C)C)oc1-c1ccc(OC(F)(F)F)cc1 [Example 561, (3-fluoro-3′-(2-isobutyl-5-(4-(trifluoromethoxy)phenyl)oxazol-4-yl)-4′-(2-methyl-4-(trifluoromethyl)-1H-imidazol-1-yl)-5-(methylsulfonyl)-[1,1′-biphenyl]-4-yl)methanol]
8 | 37 nM | 84% | Cc1nc(-c2ccc3c(c2)OC(F)(F)O3)c(-c2cc(-c3cc(F)c(CO)c(S(C)(=O)=O)c3)ccc2-n2cc(C(F)(F)F)nc2C)o1 [Example 617, (3′-(4-(2,2-difluorobenzo[d][1,3]dioxol-5-yl)-2-methyloxazol-5-yl)-3-fluoro-4′-(2-methyl-4-(trifluoromethyl)-1H-imidazol-1-yl)-5-(methylsulfonyl)-[1,1′-biphenyl]-4-yl)methanol]
9 | 158 nM | 89% | Cc1ccc(-c2cnnn2-c2cc(-c3cc(F)c(CO)c(S(C)(=O)=O)c3)ccc2-n2cc(C(F)(F)F)nc2C)cc1 [Example 48, {3-fluoro-3′-[5-(4-methylphenyl)-1H-1,2,3-triazol-1-yl]-5-(methylsulfonyl)-4′-[2-methyl-4-(trifIuoromethyl)-1H-imidazol-1-yl]biphenyl-4-yl}methanol]
10 | 175 nM | 90% | Cc1nc(C(F)(F)F)cn1-c1ccc(-c2cccc(S(C)(=O)=O)c2)cc1-n1nncc1-c1ccc(OC(F)(F)F)c(Cl)c1 [Example 53, 5-{3-chloro-4-[(trifluoromethyl)oxy]phenyl}-1-{3′-(methylsulfonyl)-4-[2-methyl-4-(trifluoromethyl)-1H-imidazol-1-yl]biphenyl-3-yl}-1H-1,2,3-triazole]
11 | 2850 nM | 139% | Cc1nc(C(F)(F)F)cn1-c1ccc(-c2cccc(C(C)(C)C(=O)O)c2)cc1-n1nncc1-c1ccc(OC(F)(F)F)cc1 [Example 95, 2-methyl-2-{4′-[2-methyl-4-(trifluoromethyl)-1H-imidazol-1-yl]-3′-(5-{4-[(trifluoromethyl)oxy]phenyl}-1H-1,2,3-triazol-1-yl)biphenyl-3-yl}propanoic acid]
12 | 702 nM | 41% | Cc1nc(C(F)(F)F)cn1-c1ccc(-c2cccc(S(C)(=O)=O)c2)cc1-c1ocnc1Cc1ccc(OC(F)(F)F)cc1 [Example 636, 5-(4-(2-methyl-4-(trifluoromethyl)-1H-imidazol-1-yl)-3′-(methylsulfonyl)-[1,1′-biphenyl]-3-yl)-4-(4-(trifluoromethoxy)benzyl)oxazole]
13 | 35 nM | 41% | Cc1nc(-c2cc(-c3cc(F)c(CO)c(S(C)(=O)=O)c3)ccc2-n2cc(C(F)(F)F)nc2C)c(-c2ccc(OC(F)(F)C(F)F)cc2)o1 [Example 544, (3-fluoro-4′-(2-methyl-4-(trifluoromethyl)-1H-imidazol-1-yl)-3′-(2-methyl-5-(4-(1,1,2,2-tetrafluoroethoxy)phenyl)oxazol-4-yl)-5-(methylsulfonyl)-[1,1′-biphenyl]-4-yl)methanol]
14 | 422 nM | 74% | Cc1nc(C(F)(F)F)cn1-c1ccc(-c2cccc(S(C)(=O)=O)c2)cc1-c1nc(CCO)oc1-c1ccc2c(c1)OC(F)(F)O2 [Example 531]
15 | 226 nM | 31% | Cc1nc(C(F)(F)F)cn1-c1ccc(-c2cc(F)c(CO)c(S(C)(=O)=O)c2)cc1-c1nc(C(C)CO)oc1-c1ccc(OC(F)(F)F)cc1 (stereo not shown) [Example 554, 2-(4-(3′-fluoro-4′-(hydroxymethyl)-4-(2-methyl-4-(trifluoromethyl)-1H-imidazol-1-yl)-5′-(methylsulfonyl)-[1,1′-biphenyl]-3-yl)-5-(4-(trifluoromethoxy)phenyl)oxazol-2-yl)propan-1-ol]
16 | 106 nM | 77% | Cc1nc(C(F)(F)F)cn1-c1c(F)cc(-c2cc(F)c(CO)c(S(C)(=O)=O)c2)cc1-n1nncc1-c1ccc(OC(F)(F)F)cc1 [Example 202, [3,3′-difluoro-5-(methylsulfonyl)-4′-[2-methyl-4-(trifluoromethyl)-1H-imidazol-1-yl]-5′-(5-{4-[(trifluoromethyl)oxy]phenyl)-1H-1,2,3-triazol-1-yl)biphenyl-4-yl]methanol]
17 | 129 nM | 81% | Cc1nc(C(F)(F)F)cn1-c1ccc(-c2cc(F)c(CO)c(S(C)(=O)=O)c2)cc1-c1nc(C2CC2)cn1-c1ccc2c(c1)OC(F)(F)O2 [Example 639, (3′-(4-cyclopropyl-1-(2,2-difluorobenzo[d][1,3]dioxol-5-yl)-1H-imidazol-2-yl)-3-fluoro-4′-(2-methyl-4-(trifluoromethyl)-1H-imidazol-1-yl)-5-(methylsulfonyl)biphenyl-4-yl)methanol]
18 | 199 nM | 50% | CCOc1ncc(-c2oc(C)nc2-c2cc(-c3cc(F)c(CO)c(S(C)(=O)=O)c3)ccc2-n2cc(C(F)(F)F)nc2C)cc1F [Example 472, (3′-(5-(6-ethoxy-5-fluoropyridin-3-yl)-2-methyloxazol-4-yl)-3-fluoro-4′-(2-methyl-4-(trifluoromethyl)-1H-imidazol-1-yl)-5-(methylsulfonyl)biphenyl-4-yl)methanol]
19 | 782 nM | 73% | Cc1nc(C(F)(F)F)cn1-c1cc(F)c(-c2cccc(S(C)(=O)=O)c2)cc1-n1nncc1-c1ccc(Cl)cc1Cl [Example 101, 5-(2,4-dichlorophenyl)-1-{6-fluoro-3′-(methylsulfonyl)-4-[2-methyl-4-(trifluoromethyl)-1H-imidazol-1-yl]biphenyl-3-yl}-1H-1,2,3-triazole]
20 | 16 nM | 89% | C=Cc1nc(-c2cc(-c3cccc(S(C)(=O)=O)c3)ccc2-n2cc(C(F)(F)F)nc2C)c(-c2ccc3c(c2)OC(F)(F)O3)o1 [Example 532]
